Columns and labels:
Type in all cases: cell-based, human
BJ fibroblasts = assay: MTT cytotoxicity assay, normal cells; settings: 48 h treatment, read-out: IC50 BJ (fibroblast)
Description: (§1) These cancer cell lines comprised prostate cancer (PC-3, DU-145, LNCaP), melanoma (SK-MEL28, A375, G-361), breast cancer (MCF-7, MDA-MB-231), and lung cancer (NCI-H1563). The MTT assay was carried out across a wide range of concentrations for 48 h.
(§2) The research was conducted on one primary cell line: BJ (fibroblast) and four types of cancerous ones: three prostate cancer cell lines (PC-3, DU-145, LNCaP); 3 Melanoma cell lines (MEL-28, A375, G-361); 2 breast cancer cell lines (MCF-7, MDA-MB-23) and one lung cancer cell line (NCI-H1563). All cell lines were obtained from the American Type Culture Collection (ATCC, Manassas, VA, USA) and were grown in media (Corning, New York, NY, USA) according to ATCC guidelines. The culture media was enriched with 10% heat-inactivated fetal bovine serum (Life Technologies, Carlsbad, CA, USA) and antibiotics: penicillin (100 units) and streptomycin (100 μg/mL) from Sigma-Aldrich (St. Louis, MO, USA). The cells were incubated at 37 °C with 5% CO2 in air.
(§3) The cytotoxic analysis of thiosemicarbazides (TSC) (AB1–AB6) and semicarbazides (SC) (AB7–AB12) was conducted in various concentrations. […] The cells were treated with compounds or DMSO as a vehicle in control cultures for 48h. IC50 values were determined using the AAT Bioquest IC50 calculator (AAT Bioquest, Inc., Pleasanton, CA, USA, Quest Graph™ EC50 Calculator. https://www.aatbio.com/tools/ec50-calculator) (accessed on 7 October 2024).
(§4) The cytotoxic activity of the thiosemicarbazides and semicarbazides was measured using the MTT colorimetric assay (MTT Cell Proliferation Assay Kit—Invitrogen, Waltham, MA, USA). The cells were seeded in the 96-well plates at a density of 1.5 × 10^5 cells/mL. After reaching 70–80% of confluence, the tested compounds in a wide range of concentrations were added. Plates were incubated for 48 h at 37 °C in 5% CO2 air. Then, […] tetrazolium salt (3-(4,5-dimethylthiazol-2-yl)-2,5-diphenyltetrazolium bromide)—MTT reagent (0.5 mg/mL) dissolved in PBS was added to each well for 4 h. The MTT solution was then removed from above the water-insoluble purple formazan crystals, which were then dissolved in DMSO (dimethyl sulfoxide, […]; POCH, Gliwice, Poland). The absorbance value of obtained solutions was measured using a PowerWave ™ microplate spectrophotometer (Bio-Tek Instruments, Winooski, VT, USA) at a wavelength of 570 nm. Each cytotoxicity assay was repeated three times in triplicates.

[1] = tested on: PC-3 prostate cancer cell line; assay: MTT cytotoxicity assay; settings: 48 h treatment
Description: as §1, §2, §3, §4

G-361 melanoma cell line [2] = assay: MTT cytotoxicity assay
Description: as §1, §2, §3, §4

[3] = tested on: MCF-7 breast cancer cell line; assay: MTT cytotoxicity assay; settings: 48 h treatment
Description: as §1, §2, §3, §4

[4] = tested on: SK-MEL28 melanoma cell line; assay: MTT cytotoxicity assay; settings: 48 h treatment
Description: as §1, §2, §3, §4

[5] = tested on: DU-145 prostate cancer cell line; assay: MTT cytotoxicity assay; settings: 48 h treatment
Description: as §1, §2, §3, §4

[6] = tested on: MDA-MB-231 breast cancer cell line; assay: MTT cytotoxicity assay; settings: 48 h treatment
Description: as §1, §2, §3, §4

[7] = tested on: NCI-H1563 lung cancer cell line; assay: MTT cytotoxicity assay; settings: 48 h treatment
Description: as §1, §2, §3, §4

[8] = tested on: LNCaP prostate cancer cell line; assay: MTT cytotoxicity assay
Description: as §1, §2, §3, §4

G-361 melanoma cell line [9] = assay: qRT-PCR relative gene expression; settings: G-361, 24 h, concentration corresponding to IC50
Description: (§5) An analysis was conducted to examine the impact of the thiosemicarbazide AB2 on LNCaP prostate cancer cells and G-361 melanoma cells, focusing on the expression of genes associated with oxidative stress, cell cycle regulation, DNA repair, and apoptosis. Superoxide dismutase (SOD2), catalase (CAT), and glutathione peroxidase 1 (GPX1) are critical antioxidant enzymes that protect cells from oxidative stress by neutralizing reactive oxygen species (ROS) and mitigating potential cellular damage. […] This indicates heightened activation of cell cycle arrest mechanisms, given that p21 acts as an important inhibitor of cyclin-dependent kinases essential for cell cycle progression. […] The contrasting alterations in CDKN1A and CYCD indicate a transition toward cell cycle arrest in response to AB2 (Figure 9B). The next assessed panel of genes includes those involved in DNA damage sensing and repair, specifically ATM and ATR. ATM and ATR are fundamental components of the DNA damage response, responsible for the detection and repair of double-strand and single-strand DNA breaks, respectively.
(§6) The last assessed panel of genes includes genes involved in the process of apoptosis. BAX is a protein that enhances apoptosis, a natural to eliminate damaged or cancer cells. On the other hand, BCL-2 prevents apoptosis, helping cancer cells survive and resist therapy. […] The decrease in BCL-2 expression, along with stable BAX levels, led to a higher BAX/BCL-2 ratio in comparison to the control.
(§7) The relative gene expression was quantitatively assessed using real-time PCR. […] Next, for cell lysis the 1 mL of TRIzol™ reagent (Invitrogen, Carlsbad, CA, USA) was added. RNA was isolated according to the Chomczynski and Sacchi method. The RNA was reverse transcribed using NG dART RT-PCR reagents (EURx, Gdańsk, Poland) according to the manufacturer’s instructions. Following the manufacturer’s recommendation, the qPCR reaction was conducted in triplicate in a 7500 fast real-time PCR machine (ThermoFisher, Waltham, MA, USA) using Fast SG/ROX qPCR Master Mix (2×) (EURx, Gdansk, Poland). 18SRNA and BACT were used as reference genes. Gene expression was evaluated using qRT-PCR and ΔΔCt. Statistical analysis was conducted using RQ values (RQ = […]).

[10] = tested on: LNCaP prostate cancer cell line; assay: qRT-PCR relative gene expression; settings: 24 h, concentration corresponding to IC50
Description: as §5, §6, §7

## O=C(COc1ccc(F)cc1)NNC(=S)Nc1ccccc1Cl [AB2]
BJ fibroblasts
  IC50: 453 µM
[1]
  IC50: > 500 µM
G-361 melanoma cell line [2]; IC50 normal cells (BJ) divided by IC50 G-361
  selectivity index (SI), G-361: 2.04
G-361 melanoma cell line [2]; MTT, 48 h treatment
  IC50: 223 µM
[3]
  IC50: > 500 µM
[4]
  IC50: 470 µM
[5]
  IC50: > 500 µM
[6]
  IC50: > 500 µM
[7]
  IC50: > 500 µM
[8]; IC50 normal cells (BJ) divided by IC50 LNCaP
  selectivity index (SI), LNCaP: 4.19
[8]; MTT, 48 h treatment
  IC50: 108 µM
G-361 melanoma cell line [9]
  ATM gene expression: downregulated
  ATR gene expression: downregulated
  BAX gene expression: did not differ from the control cultures
  BAX/BCL-2 ratio in comparison to the control: higher
  BCL-2 gene expression: significantly downregulated
  CAT gene expression, increase: approximately 8 fold
  CDKN1A (p21) gene expression: significantly upregulated
  CYCD (cyclin D) gene expression: notably downregulated
  GPX1 gene expression: moderate but significant rise
  SOD2 gene expression, rise compared to control: > 100 fold
  TP53 gene expression: significant downregulation
[10]
  ATM gene expression: downregulated
  ATR gene expression: downregulated
  BAX gene expression: did not differ from the control cultures
  BAX/BCL-2 ratio in comparison to the control: higher
  BCL-2 gene expression: significantly downregulated
  CAT gene expression, increase: ~6 fold
  CDKN1A (p21) gene expression: significantly upregulated
  CYCD (cyclin D) gene expression: notably downregulated
  GPX1 gene expression: moderate but significant rise
  SOD2 gene expression, increase compared to control: > 20 fold
  TP53 gene expression: significant downregulation

Source: publication PMC11990103, “Anticancer Activity and Safety Profile of Novel 1-(4-Fluorophenoxyacetyl)-4-substituted Thio/Semicarbazide Derivatives” (Molecules, 2025)
